Experiment [1] deals with brown marmorated stink bug. As to conditions: cited from earlier work.
The test system of experiment [2] is individual sensillum (olfactory receptor neurons) on the brown marmorated stink bug antenna. The experiment in a line: electrophysiological recording from an individual antennal sensillum in response to an olfactory stimulus. Also noted: species or system Halyomorpha halys. As to conditions: 2 second stimulus, 100 μg dosage load in ethanol, versus 2 second control stimulus; FIG. 3. The source says: Many aspects of insect behavior are mediated by olfactory signals. These olfactory signals are detected by sensory structures called sensilla which are innervated by olfactory receptor neurons and are located on various parts of the insect body including the antenna, mouthparts and tarsi. It is possible to determine the capabilities of the peripheral sensory system by using electrophysiology methods. Basically, extracellular neural responses from the individual receptor neurons located in the sensilla on the antenna of the stinkbug can be electrically recorded in response to stimulation with various concentrations of olfactory odorants.
Details of the recording methodology for insects have been described previously. […] The action potentials within this sensillum can then be monitored and recorded. […] Electrical signals obtained from the neurons within the sensillum are band-passed filtered (300-3K Hz), amplified (1000×) and analyzed using commercial software, Autospike (Syntech, Hilversum, The Netherlands). […]
FIG. 3 represents screen shots of the analysis of the above trace (FIG. 2) from the software that used to analyze the electrophysiological data. […] In the histograms, each bar represents the number of impulses calculated for a metric of impulse size.

In the case of `CCC\C=C/C=C/C=C/C(=O)OC` [methyl (2E,4E,6Z)-decatrienoate], the attraction by itself result in experiment [1] (early season trials) was “not attractive by itself”. In addition, the “cross-attraction of the brown marmorated stink bug” value in experiment [1] (in vivo) is “cross-attractive”. The attraction of adults result in experiment [1] (late in the season) was “reliably attracted”.

For ethyl (2E,4E,6Z)-decatrienoate, the “number of impulses (activity) in stimulus histogram compared to control histogram” value in experiment [2] is “more activity in the bottom stimulus histogram as compared to the top control histogram”.

The record behind these values is patent US20160058006A1, “COMPOSITIONS AND METHODS FOR ATTRACTING STINK BUGS” (BEDOUKIAN RESEARCH, INC., priority 2014, published 2016).
